Assay results from patent US8835447B2, “Method for treating androgen receptor positive cancers” (priority 2009, dated 2014).
Entries after “also recorded” stand apart in the source; their conditions may differ.

Assays:
LNCaP cells = assay: Colony formation assay, LNCaP cells; format: cell-based, human; settings: 10 μM, 7 days
Description: (§1) Cell Colony Assay: Cells were plated in 24-well plates at a density allowing 6-7 days of exponential growth before confluency. Medium and compound was replaced every 48 hours to minimize the effect of potential compound instability. After 7 days of incubation in the presence of compound, cells were fixed and stained with methylene blue, followed by extraction of the stain with 1% SDS and spectrophotometry at 650 nm. Each assay was run in triplicate and the difference between control and compound-treated wells was determined using Student's t-test. This Example provides a description of the effect of the selected compounds on the growth of PCa cells. To test the toxicity of the identified AR inhibitors towards cells of different origins, we performed colony formation assays using a single dose of each compound (10 μM) on several PCa (LNCaP, C4-2, CW[…] and DU145) and two non-PCa (HT1080 and HeLa) cell lines (FIG. 2A). […] These compounds were not weaker inhibitors of AR transcriptional activity in CW[…] or C4-2 cells than compounds that inhibited growth of the cells.

C4-2 and CWR22R cells = assay: Colony formation assay, androgen-independent C4-2 and CWR22R cells; format: cell-based, human; settings: 10 μM, 7 days
Description: as §1

[1] = tested on: AR-expressing PCa cell lines (LNCaP, C4-2, CWR22R); assay: Toxicity to AR-expressing PCa cell lines (colony formation / dose-dependent growth inhibition); format: cell-based, human; settings: for toxicity towards AR-expressing PCa cell lines: colony formation, 10 μM, three AR-expressing PCa cell lines; for degree of toxicity to PCa cells (killing vs reduced growth): dose-dependent toxicity, by day 7
Description: (§2) Cell Colony Assay: Cells were plated in 24-well plates at a density allowing 6-7 days of exponential growth before confluency. Medium and compound was replaced every 48 hours to minimize the effect of potential compound instability. After 7 days of incubation in the presence of compound, cells were fixed and stained with methylene blue, followed by extraction of the stain with 1% SDS and spectrophotometry at 650 nm. Each assay was run in triplicate and the difference between control and compound-treated wells was determined using Student's t-test.
Dose-dependent inhibition of cell growth: Cells were plated at 1×10^3 cells per well in 96-well plates. Compounds were added in a dose range from 1 to 20000 nM in two-fold increments. Each dose was tested in triplicate. Controls were 0.1% DMSO (no effect on cell viability) and 50 μM 9-aminoacridine (complete cell death). Cells were incubated for 6 days and then fixed and stained with methylene blue, followed by extraction of the stain with 1% SDS and spectrophotometry at 650 nm. The assay was run two times and, based on the results, the inhibitory concentration of compound suppressing cell growth by 50% as compared to DMSO (IC50) was calculated by the sigmoid approximation method using CalcuSyn software (Biosoft, Chembridge, UK). Confidence intervals were calculated for each sigmoid.
This Example provides a description of the effect of the selected compounds on the growth of PCa cells. To test the toxicity of the identified AR inhibitors towards cells of different origins, we performed colony formation assays using a single dose of each compound (10 μM) on several PCa (LNCaP, C4-2, CWR22R and DU145) and two non-PCa (HT1080 and HeLa) cell lines (FIG. 2A). […] These compounds were not weaker inhibitors of AR transcriptional activity in CWR22R or C4-2 cells than compounds that inhibited growth of the cells. […]

[2] = tested on: HT1080, HeLa and DU145 cells; assay: Colony formation assay, non-PCa and AR-negative PCa cells; format: cell-based, human; settings: 10 μM, 7 days
Description: as §2
This Example provides a description of the effect of the selected compounds on the growth of PCa cells. To test the toxicity of the identified AR inhibitors towards cells of different origins, we performed colony formation assays using a single dose of each compound (10 μM) on several PCa (LNCaP, C4-2, CWR22R and DU145) and two non-PCa (HT1080 and HeLa) cell lines (FIG. 2A). […] These compounds were not weaker inhibitors of AR transcriptional activity in CWR22R or C4-2 cells than compounds that inhibited growth of the cells.

C4-2 tumors = assay: C4-2 xenograft model in nude mice; format: in vivo, mouse; settings: 6 daily i.p. injections, 100xIC50 dose
Excerpt: FIGS. 6A and 6B provide data showing anti-tumor activity of the selected hits in mouse models of androgen-independent PCa. FIG. 6A provides a graphical representation of data obtained from i.p. injection of the listed compounds or DMSO vehicle into nude mice carrying subcutaneous (s.c.) C4-2 tumors. Six daily injections were given starting when tumors were around 100 mm3 in size. There were 4-5 mice per group with two tumors per mouse. Asterisks (*) and number signs (#) are placed under the means of measurement in the c6 and c11 groups respectively which are statistically different from the control group by ANOVA test (>99%) B. C52 (9 mg/kg or 18 mg/kg) or DMSO vehicle was injected into the tail vein of nude mice carrying s.c. CWR22R tumors. Five daily injections were given starting when tumors were around 40 mm3 in size. There were 10 mice per group with one tumor per mouse. Asterisks (*) are placed under the means of measurement which are statistically different from the control group by ANOVA test (>99%). Error bars in both FIGS. 6A and B—standard deviation between the size of tumors within a given treatment group.
Testing of the anti-tumor effect of compounds in mice was done according to an IACUC-approved protocol in 8 week old male athymic nude mice from Harlan (Indianapolis, Ind.). For the C4-2 xenograft model, 10^6 C4-2 cells were injected subcutaneously (s.c.) in 2 sites of each mouse in 50% matrigel (BD Biosciences, Bradford, Mass.) in PBS. Upon development of visible tumors, they were measured using digital caliper. Tumor volume was calculated according to the formula: […]. Mice were injected with compounds i.p. daily for 6 days starting on the day when at least one tumor per mouse reached 100 mm^3 in size. Five mice per group were used. For the CWR22R xenograft model, CWR22R cells were inoculated (10^5 cells per inoculum) in 50% matrigel, one site per mouse. Treatment was started when the tumor grew to a size of at least 25 mm^3. Compounds were diluted in captisol (CyDex, Lenexa, Kans.) and delivered intravenously (to reduce “first pass” liver effect) once a day for 5 days. Ten mice per group were used. Mice were monitored daily and tumors were measured every other day. Mice were euthanized according to institutional regulations when the size of tumor reached 1000 mm^3. Comparison of the tumor growth in control and treated mice was done using ANOVA test.
We evaluated the potential anti-tumor effect of the hits using C4-2 and CWR22R xenograft models of androgen-independent PCa in nude mice. Groups of C4-2 tumor-bearing mice (4-5 mice per group, each with two tumors) were given 6 daily i.p. injections of compound (100×IC50 dose) or DMSO vehicle.

NIH Swiss mice = assay: Compound safety in mice, dose escalation; format: in vivo; settings: three i.p. injections 20x, 50x, 100xIC50 in 3 day intervals
Description: Testing of compound safety in mice was done according to an IACUC-approved protocol. The experiment was performed using outbred 8 week old NIH Swiss male mice from Harlan (Indianapolis, Ind.), 4 mice per group. IC50 concentrations were used to calculate in vivo doses based on mouse weight (IC50 in vivo dose equivalent in mg/kg=IC50 in mg/ml×1000, based on the assumption that 1 g of mouse tissues have an approximate volume of 1 ml). The compounds were injected intraperitoneally (i.p.) in 25% DMSO-75% PBS starting from 20×IC50 equivalent of in vitro cytotoxic dose of compounds. […]. The control group of mice received 3 injections of 25% DMSO-75% PBS in intervals of three days. Blood biochemistry analysis was performed by BioReliance (Rockville, Md.).
Five hit compounds, representing both the ARTIS and ARTIK categories (c6, c11, c17, c52 and c85), were selected for in vivo tests based on all of the previous assays. Compound c5 was rejected due to very low microsomal stability (<5% after 1 hour incubation with rat microsomes). The toxicity of the compounds was evaluated in a dose escalation assay in which male NIH Swiss mice (n=4) received three sequential intraperitoneal (i.p.) injections of each compound delivered in 3 day intervals. […]. On the day after the last injection, half of the mice in each group were sacrificed for gross pathology examination and collection of blood for serum biochemistry assays, which include total protein, glucose, bilirubin, and creatinine levels, activity of liver enzymes, and ion concentrations. The remaining mice were sacrificed and evaluated similarly 7 days after the last compound injection. […] A minor decrease in serum glucose concentration (70-80% of control) was observed on the day after the last compound injection in almost all mice, but glucose levels were normal a week later (data not shown). Low serum glucose level might reflect of a weak transient GR-inhibitory effect of the selected compounds.

CWR22R cells = assay: Cell cycle distribution by propidium iodide staining; format: cell-based, human; settings: for changes in cell cycle distribution: increase in G1, decrease in S phase; for cells with sub-G1 DNA content (apoptotic): propidium iodide FACS
Description: Analysis of cell cycle distribution was based on staining of DNA content by propidium iodide. 10^5 cells were removed from culture dishes using trypsin, washed with PBS and resuspended in 300 μl 3% BSA in PBS, followed by addition of […] 70% ethanol. Cells were kept at −20° C. for several hours and then stained with 10 μg/ml propidium iodide in the presence of 30 μg/ml RNase A for 2 hrs at 37° C. DNA content was assessed using a FACS Calibur instrument and CellQuest software (Becton Dickinson, Franklin Lakes, N.J.).
To test this possibility, we assessed the cell cycle distribution of CWR22R cells treated with both categories of compounds. […] Therefore, different subsets of compounds inhibiting AR-dependent transcription in androgen-independent PCa cells cause either growth arrest or apoptosis in these cells. Whether a compound causes growth arrest or apoptosis is not determined by the potency of the compound as an inhibitor of AR-dependent transcription (i.e., FIG. 2B).

Compound	growth of androgen-sensitive LNCaP cells (LNCaP cells)	growth of androgen-independent C4-2 and CWR22R cells (C4-2 and CWR22R cells)	toxicity towards AR-expressing PCa cell lines [1]	degree of toxicity to PCa cells (killing vs reduced growth) [1]	growth of / toxicity towards non-PCa cells or AR-negative PCa cells (DU145) [2]	C4-2 tumor growth (C4-2 tumors)	toxicity in mice (visual inspection, gross pathology) (NIH Swiss mice)	changes in cell cycle distribution (CWR22R cells)	cells with sub-G1 DNA content (apoptotic) (CWR22R cells)
CC1=C(C(=O)OCCc2ccccc2)C(c2ccc(Cl)cc2)C2=C(CCCC2=O)N1 (centres unmarked) [c8]	suppressed growth of LNCaP cells; also recorded: suppress growth of androgen-sensitive LNCaP cells	do not affect growth	–	–	–	–	–	–	–
O=C(NC(=S)Nc1nc(-c2ccccc2)cs1)c1ccc(-c2ccccc2)cc1 [c17]	–	–	different degrees of toxicity; also recorded: suppress growth of all	reduced growth as compared to untreated control cells, but not obvious cell death	no toxicity	did not	–	–	–
Clc1ccccc1C1Nc2cccc3cccc(c23)N1 [c6]	–	–	different degrees of toxicity; also recorded: suppress growth of all	reduced growth as compared to untreated control cells, but not obvious cell death	no toxicity	clear suppression of C4-2 tumor growth	generally non-toxic	cell cycle arrest	did not result in appearance of cells with sub-G1 DNA content
c1ccc(CNc2ccc(-c3nc4ccccc4o3)cc2)cc1 [c55]	suppressed growth of LNCaP cells; also recorded: suppress growth of androgen-sensitive LNCaP cells	do not affect growth	–	–	–	–	–	–	–
CC(C)(C)c1ccc(C(=O)Nc2ccc(NC(=O)c3ccc4c(c3)OCCO4)cc2)cc1 [c11]	–	–	different degrees of toxicity; also recorded: suppress growth of all	reduced growth as compared to untreated control cells, but not obvious cell death	no toxicity	clear suppression of C4-2 tumor growth	generally non-toxic	cell cycle arrest	did not result in appearance of cells with sub-G1 DNA content
Cc1ccc(OCC(=O)Nc2ccc(Cl)c([N+](=O)[O-])c2)c(C)c1 [c61]	suppressed growth of LNCaP cells; also recorded: suppress growth of androgen-sensitive LNCaP cells	do not affect growth	–	–	–	–	–	–	–
CC(C)c1ccc2oc(-c3cccc(NC(=S)NC(=O)c4ccccc4Br)c3)nc2c1 [c16]	suppressed growth of LNCaP cells; also recorded: suppress growth of androgen-sensitive LNCaP cells	do not affect growth	–	–	–	–	–	–	–
FC(F)(F)c1ccccc1CN1CCN(Cc2c[nH]c3ccccc23)CC1 [c66]	–	–	–	–	exception	–	–	–	–
C=CCc1ccccc1OCCOc1ccc(C=Nn2cnnc2)cc1OC [c18]	–	–	different degrees of toxicity; also recorded: suppress growth of all	reduced growth as compared to untreated control cells, but not obvious cell death	no toxicity	–	–	–	–
C=CCc1ccc(OCCCOc2ccccc2C(C)=O)c(OC)c1 [c47]	suppressed growth of LNCaP cells; also recorded: suppress growth of androgen-sensitive LNCaP cells	do not affect growth	–	–	–	–	–	–	–
